US20140234868A1, “USE FOR GLYCOLIPOPROTEIN GINTONIN, ISOLATED AND IDENTIFIED FROM GINSENG, AS A NATURAL MEDICAL-PLANT DERIVED LIGAND” (KONKUK UNIVERSITY INDUSTRIAL COOPERATION CORP., priority 2011, published 2014)

What was measured:
[1] = target: LPA2 receptor (Homo sapiens, UniProt Q9HBW0); test: Intracellular free Ca2+ (Fura-2AM) in LPA2-expressing B103 cells; format: cell-based; set-up: host or cells: B103 rat neuroblastoma cells; settings: LPA2-expressing B103 cells
Source text: LPA family receptors are endogenous to cells of most organs. B103 rat neuroblastoma cells, known as LPA receptor-null cells (Valentine et al., Biochim Biophys Acta 1780. 597-605) were transiently transfected with a plasmid (vector) carrying one of genes coding for LPA1(edg-2), LPA2(edg-4), LPA3(edg-7), LPA4, LPA5 and LPA6 receptors or a plasmid carrying none of them (empty vector). Two or three days after transfection, the cells are suspended, and made permeable. Then, the permeable cells are treated with Fura-2AM, a fluorescent dye binding to calcium, and then with gintonin, followed by spectrofluorephotometry to examine whether gintonin induces an increase in intracellular free Ca^2+ level.
(1) preparing large quantities of plasmids carrying respective LPA family receptor genes and an empty plasmid carrying none of them through amplification and purification (maxi-preparation); (2) verifying the expression of LPA receptors wherein B103 cells are transfected with haematoglutin (HA)-tagged LPA receptors, and then subjected to Western blotting analysis using an anti-HA primary antibody and a horseradish peroxidase (HRP)-conjugated secondary antibody to develop a color; (3) verifying the expression of LPA receptors wherein B1-3 cells are transfected with haematoglutin (HA)-tagged LPA receptors, and then subjected to confocal laser microscopy using an anti-HA antibody and a fluorescence dye Cy3-conjugated secondary antibody; (4) transfecting the empty plasmid and each of the plasmids carrying LPA family receptor genes into B103 cells; (5) treating the transfected B103 cells with trypsin (0.05% trypsin with EDTA, w/v) 2-3 days post-transfection, to give a cell suspension; (6) culturing the suspended B103 cells with Fura-2AM (2.5 μM); and (7) treating the suspended B103 cells with gintonin and quantifying a change in intracellular free Ca^2+ level in a cuvette by spectrofluorephotometry using Fura-2AM.
Human LPA (lysophosphatidic acid) receptor subtypes, orphan GPCRs (G protein coupled receptors) and plasmids carrying GPCRs were purchased from Missouri S&T resource Center (www.cDNA.org).
The transient transfection of LPA receptor subtypes was carried out with the aid of Lipofectamine 2000 of Invitrogen. A plasmid (10.8 μg) carrying each LPA receptor (LPA1, LPA2, LPA3, LPA4, LPA5, and LPA6) was transfected into B103 cells grown in 10-cm dishes, and incubated for 2 days prior for use in experiments.
In this Example, gintonin, or ginsenoside Rb1 or Rg1 was examined for its ability to induce a transient increase of [Ca^2+]i in Fura-2AM-loaded B103 cells which were transfected with LPA receptors and in Fura-2AM-loaded B103 cells which were not transfected with LPA receptors. […]

[2] = tested on: endogenous CaCC; test: Endogenous Ca2+-activated channel (CaCC) activation in Xenopus oocytes; format: cell-based, Xenopus laevis; settings: Kil6425 10 μM; U73122 1 μM; 2-APB 100 μM; BAPTA 100 μM 3 h
[3] = tested on: BKCaK+ channels; test: BKCa K+ channel activity in Xenopus oocytes, two-electrode voltage clamp; format: cell-based; settings: 2-APB 100 μM, BAPTA-AM, PMA 1 μM; for effect on gintonin-induced BKCaK+ channel activation: Kil6425 10 μM, U73122, U73343 1 μM
Protocol: (§1) Xenopus laevis frogs were obtained from Xenopus I (Ann Arbor, Mich.). Their care and handling were in accordance with the highest standards of institutional guidelines. To isolate oocytes, the frogs were operated on under anesthesia with an aerated solution of 3-aminobenzoic acid ethyl ester. Oocytes were separated by treatment with collagenase and agitation for two hours in a Ca^2+-free medium containing 82.5 mM NaCl, 2 mM KCl, 1 mM MgCl2, 5 mM HEPES, 2.5 mM sodium pyruvate, 100 units/ml penicillin and 100 μg/ml streptomycin.
Stage V-VI oocytes were collected and stored in ND96 (96 mM NaCl, 2 mM KCl, 1 mM MgCl2, 1.8 mM CaCl2, and 5 mM HEPES, pH 7.4) supplemented with 50 μg/ml gentamicin. This oocyte containing solution was maintained at 18° C. with continuous gentle shaking while the ND96 medium was changed with a fresh one every day.
Two-electrode voltage-clamp recordings were obtained from individual oocytes placed in a small Plexiglas net chamber (5 ml). Electrophysiological experiments were performed using microelectrodes filled with 3 M KCl (resistance of 0.2-0.7 MΩ) and an Oocyte Clamp amplifier (OC-725C; Warner Instrument, CT, USA) to record BKc K^+ channel activity at room temperature (Choi et al., Mol Cells 31, 133-140, 2011). For physiological recordings of BKCaK^+ channel activity, oocytes were first perfused with a Cl^−- and Ca^2+-free solution (mM: 96 NaOH, 2 KOH, 8 Mg-gluconate, 5 HEPES, 5 EGTA, pH 7.4 with methanesulfonic acid) supplemented with 500 μM anthracene-9-carboxylic acid, a Cl^− channel blocker, to block endogenous Cl-channels (Lu et al., J. Biol. Chem. 265, 16190-16194.1990). Then, the oocytes were clamped at −80 mV holding potential, followed by step depolarization from the holding potential to +40 mV at regular intervals of […] for 400 ms to record outward currents.

[4] = tested on: NMDA receptors (NR1 and NR2); test: NMDA receptor activity in Xenopus oocytes, two-electrode voltage clamp; format: cell-based; settings: Kil6425 10 μM, 2-APB 100 μM, BAPTA 100 μM 3 h; for effect on NMDA-induced inward current: U73122 1 μM; for effect on gintonin-induced NMDA receptor activation: gintonin 1 μg/ml, U73122, U73343 1 μM, genistein 10 μM, PP2, PP3 30 μM
Protocol: cDNAs of NMDA receptor subunits (NR1 and NR2) were employed (Zheng et al., J Neurosci. 17, 8676-8686, 1997). cDNAs (100 ng/40 nl) corresponding to respective NMDA receptor subunits (NR1 and NR2) were injected into animal or vegetal poles of oocytes by use of a […] (VWR Scientific, USA) and incubated for 4-5 days after injection (Zheng et al., J Neurosci. 17, 8676-8686, 1997).
as §1
Stage V-VI oocytes were collected and stored in ND96 (96 mM NaCl, 2 mM KCl, 1 mM MgCl2, 1.8 mM CaCl2, and 5 mM HEPES, pH 7.4) supplemented with 50 μg/ml gentamicin. This oocyte containing solution was maintained at 18° C. with continuous gentle shaking while the ND96 medium was changed to a fresh one every day.
Two-electrode voltage-clamp recordings were obtained from individual oocytes placed in a small Plexiglas net chamber (5 ml). Electrophysiological experiments were performed using microelectrodes filled with 3 M KCl (resistance of 0.2-0.7 MΩ) and an Oocyte Clamp amplifier (OC-725C; Warner Instrument, Hamden, Conn.). For physiological recordings of NMDA receptor activity, oocytes were first perfused with Mg^2+-free ND96 (mM: 96 NaOH, 2 KOH, 0.3 CaCl2, 5 HEPES pH 7.6 with methanesulfonic acid). Then, the oocytes were clamped at −60 mV holding potential, followed by recoding NMDA currents (induced by administering […]) (Zheng et al., J Neurosci. 17, 8676-8686, 1997; Chang and Kuo, J Neurosci. 28, 1546-1556, 2008).

[5] = tested on: mice; test: Passive avoidance test, scopolamine-caused long-term memory impairment; format: in vivo, mouse; settings: scopolamine alone (0.9 mg/kg, i.p.); test session 24 h after learning
Protocol: ICR male mice (25-28 g), purchased from Oriental Bio (Seoul, Korea), were bred according to the guideline of the Institutional Animal Care and Use Committee of Konkuk University, and subjected to passive avoidance test to examine memory maintenance impairment and the protection of gintonin against memory impairment according to the method of Yang et al. (Yang et al., Biol Pharm Bull 32, 1710-1715, 2009).
A passive avoidance test was performed in a training chamber which was divided into two compartments (20×20×20 cm in size, each) separated by an automatically moving guillotine door (5×5 cm): one compartment was lighted while the other remained dark where metal rods installed in a lattice pattern on the bottom so as to deliver an electrical foot shock (Gemini Avoidance System, San Diego, USA).
For an acquisition trial, a mouse was first placed in the lighted compartment, facing away from the dark compartment and allowed to explore for 10 sec. After 10 sec, the guillotine door was opened and the mouse was allowed to explore freely. When the mouse entered the dark compartment with all four paws according to its habit, the guillotine door was closed, and a footshock (0.5 mA, 3 sec duration) was delivered. The latency time to enter the dark compartment was recorded (from the time the door was lifted). 120 min before experimentation, gintonin (25, 50, 100 mg/kg, p.o) was administered while tacrine (10 mg/kg, p.o) was used as a positive control. Memory impairment was induced by injecting scopolamine (0.9 mg/kg, i.p.) 30 min after gintonin or tacrine administration (Araujo et al., Prog Neuropsycopharmcol Biol Psychiatry 29, 411-422, 2005). For a negative control, a physiological saline was used.
24 Hours after the learning session, an experiment was performed without injecting gintonin. The mouse was positioned again in the lighted compartment. After 10 sec of acclimation, the latency time to enter the dark compartment was recorded (from the time the door was lifted).

[6] = tested on: mice; test: Water maze test, scopolamine-caused spatial cognition impairment; format: in vivo, mouse; settings: scopolamine alone (0.9 mg/kg i.p.)
Protocol: The Moths water maze set up contained a round water pool (45 cm deep with a diameter of 90 cm) filled with milk-mixed water (22±1° C.) to a depth of 30 cm. It was placed in a dark, sound-shielded room in which various visual cues were established. A white platform (6 cm in diameter, 29 cm in height) was inside the pool, with the top thereof 1 cm below the water surface in the center of one quadrant of the maze
On day 1, the mice were trained to swim for 60 sec. Subsequently, the training was conducted four times a day for four consecutive days, with the platform inside the pool. When the mouse reached the platform, it was allowed to sit on the platform only for 10 sec. If the failed in reaching the platform within 60 sec, it was guided to reach the platform and stay for 10 sec thereon. Afterwards, the mouse was returned back to the home cage and allowed to dry its body under an IR lamp. The time interval between trials was 30 sec.
The time to reach the hidden platform was recorded in each trial using a video camera-based Ethovision System (Nodulus, Wageningen, the Netherlands).
For each training trial, the mouse was placed into the pool at one quadrant at positions which were different day by day. One day after the final training trial, the mouse was evaluated. In this regard, after the platform was removed, the mouse was allowed to swim for 60 sec in search for the platform, and the time to swim in the quadrant where the platform was located was recorded. Gintonin (25, 50, or 100 mg/kg, p.o.) in physiological saline was administered 1 hr before test, every day. Tacrine (10 mg/kg, p.o.) was used as a positive control. Memory impairment was induced by scopolamine (0.9 mg/kg i.p.) 30 min after gintonin administration. For a negative control, only physiological saline was administered.
An examination was made of simple spatial reasoning. To this end, while the mice were allowed to swim in the absence of the rescue platform in the pool, the time period during which the mice swam in the quadrant where the rescue platform had been located was recorded.

Sequence of LPA2 receptor (Q9HBW0 whole entry): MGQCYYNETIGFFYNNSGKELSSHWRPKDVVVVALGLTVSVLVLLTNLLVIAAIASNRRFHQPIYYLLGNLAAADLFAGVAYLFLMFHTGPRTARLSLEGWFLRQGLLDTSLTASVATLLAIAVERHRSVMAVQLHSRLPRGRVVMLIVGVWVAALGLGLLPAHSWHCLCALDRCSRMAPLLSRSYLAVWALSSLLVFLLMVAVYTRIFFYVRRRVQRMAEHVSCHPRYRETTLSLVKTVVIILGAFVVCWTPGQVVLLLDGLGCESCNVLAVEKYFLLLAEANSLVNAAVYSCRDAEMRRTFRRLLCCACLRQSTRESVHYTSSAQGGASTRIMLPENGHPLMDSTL

Compound | effect on gintonin-induced intracellular calcium increase [1] | effect on gintonin-induced CaCC activation [2] | effect on gintonin-induced BKCaK+ channel activation [3] | effect on ginsenoside Rg3-induced BKCaK+ channel activity ([3]; U73122 1 μM) | effect on NMDA-induced inward current [4] | effect on gintonin-induced NMDA receptor activation [4] | latency time [5] | swimming time in the quadrant where the platform had been located [6]
NCCOB(c1ccccc1)c1ccccc1 [2-APB] | blocked | suppressed gintonin-induced CaCC activation | blocked gintonin-induced BKCaK^+ channel activation | not blocked | did not block NMDA-induced inward current | blocked gintonin-induced NMDA receptor activation |  | 
COc1ccc2c(c1)CC[C@@H]1[C@@H]2CC[C@]2(C)[C@@H](NCCCCCCN3C(=O)C=CC3=O)CC[C@@H]12 [U73122] | blocked | suppressed gintonin-induced CaCC activation | blocked gintonin-induced BKCaK^+ channel activation |  | did not block NMDA-induced inward current | blocked gintonin-induced NMDA receptor activation |  | 
CN1[C@@H]2C[C@@H](OC(=O)[C@H](CO)c3ccccc3)C[C@H]1[C@@H]1O[C@@H]12 [scopolamine, reference compound] |  |  |  |  |  |  | 23.07 ± 1.95 s | 13.47 ± 1.86 s
